Test results as given in US20260048051A1, “TREATMENT OF INFLAMMATORY BOWEL DISEASE” (Atomwise Inc., priority 2024, published 2026).
Where two headings read alike, the source gives them in different places.

Experiment: Plasma and tissue distribution in SD rats
Assay type: in vivo
Conditions: for Kp / AUC(0-t): rat, 10 mg/kg; for AUC(0-t): plasma
Excerpt: The following Example describes the methods and data used to evaluate the tissue distribution of TYK2 inhibitors following the administration of either compound 1 or compound 2.
Thirty (30, 15/sex) SD rats supplied by Beijing Vital River Laboratory Animal Technology Co., Ltd. were used in this study. The animals were confirmed to be healthy before being assigned to the study. The room (s) was controlled and monitored for relative humidity (targeted mean range 40% to 70%) and temperature (targeted mean range 20° C. to 26° C.) with 15 or above air changes/hour. The room was on a 12-hour light/dark cycle except when interruptions were necessitated by study activities. Fresh drinking water (reverses osmosis) was available to all animals, ad libitum. Certified animal diet from certified vendor was available to all animals, ad libitum.
Animals were weighed prior to dose administration to calculate the actual dose volume. The body weights were in the range from 245.39 to 276.33 g for males and 182.29 to 215.69 g for females on the first dosing day. The animals in Groups 1 and 2 received a single oral gavage administration of test compound 1. Cage-side observations for the general health condition and appearance of the animal were performed before and after dosing and at each time point of sample collection. Unusual observations were recorded throughout the duration of the study.
The vehicle was 0.5% methyl cellulose (4000 cps) in water. The formulation was prepared according to the following steps. Group 1: 25.95 mg of compound 1 was weighed into a glass vial. 5000 μL of vehicle was added into the vial and stirred for 30 min at 1700 rpm to get a homogenous opaque suspension. 5000 μL of vehicle was added into the vial and stirred for 10 min at 1700 rpm to get a homogenous opaque suspension. 5000 μL+5000 μL+5000 μL+924 μL of vehicle was added into the vial and stirred for 10 min at 1700 rpm to get a homogenous opaque suspension. Group 2: 81.66 mg of compound 1 was weighed into a glass vial. 5000 μL of vehicle was added into the vial and stirred for 30 min at 1700 rpm to get a homogenous opaque suspension. 5000 μL of vehicle was added into the vial and stirred for 10 min at 1700 rpm to get a homogenous opaque suspension. 10 mL+10 mL+10 mL+20 mL+10 mL+10 mL+1580 μL of vehicle was added into the vial and stirred for 10 min at 1700 rpm to get a homogenous opaque suspension.
Blood (about 0.2 mL) was collected at each time point via jugular vein puncture from each study animal. The actual time for each sample collection was recorded. The acceptable deviations on sampling time were ±1 min for the time points pre-dose through 1 hour post-dose, and +5% of the nominal time for time points after 1 hour post-dose.
All blood samples were transferred into commercial tubes containing K2-EDTA. After blood was collected, the samples were placed on wet ice and processed for plasma within 60 minutes of collection by centrifugation at approximately 4° C., 3200×g for 10 minutes, and then quickly frozen over dry ice and kept at −60° C. or lower until LC-MS/MS analysis.
Following terminal blood sample collection, animals were conducted CO2 euthanasia, the chest and abdominal cavities were opened carefully lengthwise using scissors to expose the internal organs in preparation of tissue perfusion. A needle was used to puncture a small hole into the left ventricle of the heart, and then clamped with a hemostat. […] Fluid (cold 1×PBS) was infused until the liver pales (typically 2-3 minutes). Following perfusion, 14 kinds of tissues (spleen, bone marrow, adipose, brain, heart, kidney, liver, lung, skin, small intestine, large intestine, eye, gonads, and bladder) were collected from each animal, respectively.
Each tissue was weighed and homogenized on wet ice using homogenizing buffer (MeOH/15 mM PBS 1:2) at the ratio of 1:9 (1 g tissue with 9 mL buffer). The tissue homogenate was kept at −60° C. or lower until LC-MS/MS analysis. […]

[1] = female SD rat, PO 10 mg/kg, Spleen
[2] = male SD rat, PO 10 mg/kg, Bladder
[3] = male SD rat, PO 10 mg/kg, Bone Marrow
[4] = male SD rat, PO 10 mg/kg, Epididymis & Testis
[5] = male SD rat, PO 10 mg/kg, Eyeball (left and right)
[6] = male SD rat, PO 10 mg/kg, Heart
[7] = male SD rat, PO 10 mg/kg, Kidney (left and right)
[8] = male SD rat, PO 10 mg/kg, Large intestine
[9] = male SD rat, PO 10 mg/kg, Liver
[10] = male SD rat, PO 10 mg/kg, Small intestine
[11] = male SD rat, PO 10 mg/kg, Spleen
[12] = ovary and uterus, female SD rat, PO 10 mg/kg, Ovary & Uterus

C[C@@H](c1ccc(Nc2cc(Nc3ncccc3S(C)(=O)=O)ncn2)nc1)N1CC2(COC2)C1 [Compound 1, (S)—N^4-(5-(1-(2-oxa-6-azaspiro[3.3]heptan-6-yl)ethyl)pyridin-2-yl)-N^6-(3-(methylsulfonyl)pyridin-2-yl)pyrimidine-4,6-diamine]
AUC0-24 [1]: 22131 ng·h/g
AUC0-inf [1]: 22145 ng·h/g
AUC0-last [1]: 19543 ng·h/g
Cmax [1]: 4430 ng/g
Tmax [1]: 0.5 h
half-life [1]: 2.62 h
Kp (female, SD, bladder, po, female SD rat, PO 10 mg/kg, Bladder, Tissue AUC0-last/Plasma AUC0-last, read-out: AUC Ratio): 5.12
Kp (female, SD, bone marrow, po, female SD rat, PO 10 mg/kg, Bone Marrow, Tissue AUC0-last/Plasma AUC0-last, read-out: AUC Ratio): 4.64
Kp (female, SD, eyeball (left and right), po, female SD rat, PO 10 mg/kg, Eyeball (left and right), Tissue AUC0-last/Plasma AUC0-last, read-out: AUC Ratio): 0.953
Kp (female, SD, fat, po, female SD rat, PO 10 mg/kg, Fat, Tissue AUC0-last/Plasma AUC0-last, read-out: AUC Ratio): 0.506
Kp (female, SD, heart, po, female SD rat, PO 10 mg/kg, Heart, Tissue AUC0-last/Plasma AUC0-last, read-out: AUC Ratio): 1.39
Kp (female, SD, kidney (left and right), po, female SD rat, PO 10 mg/kg, Kidney (left and right), Tissue AUC0-last/Plasma AUC0-last, read-out: AUC Ratio): 30.6
Kp (female, SD, large intestine, po, female SD rat, PO 10 mg/kg, Large intestine, Tissue AUC0-last/Plasma AUC0-last, read-out: AUC Ratio): 11.6
Kp (female, SD, liver, po, female SD rat, PO 10 mg/kg, Liver, Tissue AUC0-last/Plasma AUC0-last, read-out: AUC Ratio): 8.67
Kp (female, SD, lung, po, female SD rat, PO 10 mg/kg, Lung, Tissue AUC0-last/Plasma AUC0-last, read-out: AUC Ratio): 2.57
Kp (female, SD, ovary and uterus, po, female SD rat, PO 10 mg/kg, Ovary & Uterus, Tissue AUC0-last/Plasma AUC0-last, read-out: AUC Ratio): 1.29
Kp (female, SD, skin, po, female SD rat, PO 10 mg/kg, Skin, Tissue AUC0-last/Plasma AUC0-last, read-out: AUC Ratio): 1.11
Kp (female, SD, small intestine, po, female SD rat, PO 10 mg/kg, Small intestine, Tissue AUC0-last/Plasma AUC0-last, read-out: AUC Ratio): 17.5
Kp (female, SD, spleen, po, female SD rat, PO 10 mg/kg, Spleen, Tissue AUC0-last/Plasma AUC0-last, read-out: AUC Ratio): 5.73
Kp (female, Sprague-Dawley, ovaries, oral, SD rat, Ovaries, read-out: Tissue/Plasma Ratio (AUCinf)): 1.4
AUC(0-t) (female, Sprague-Dawley, po, female SD rat, PO 10 mg/kg, read-out: AUC0-24): 3610 ng·h/mL
AUC(0-t) (female, Sprague-Dawley, po, female SD rat, PO 10 mg/kg, read-out: AUC0-last): 3410 ng·h/mL
AUC0-24 [2]: 14526 ng·h/g
AUC0-inf [2]: 14666 ng·h/g
AUC0-last [2]: 14526 ng·h/g
Cmax [2]: 2980 ng/g
Tmax [2]: 2 h
half-life [2]: 3.38 h
AUC0-24 [3]: 10736 ng·h/g
AUC0-inf [3]: 10835 ng·h/g
AUC0-last [3]: 10736 ng·h/g
Cmax [3]: 2900 ng/g
Tmax [3]: 0.5 h
half-life [3]: 3.51 h
AUC0-24 [4]: 5163 ng·h/g
AUC0-last [4]: 5163 ng·h/g
AUC0-24 [5]: 1795 ng·h/g
AUC0-inf [5]: 1830 ng·h/g
AUC0-last [5]: 1332 ng·h/g
AUC0-24 (male SD rat, PO 10 mg/kg, Fat): 1703 ng·h/g
AUC0-inf (male SD rat, PO 10 mg/kg, Fat): 1716 ng·h/g
AUC0-last (male SD rat, PO 10 mg/kg, Fat): 1388 ng·h/g
AUC0-24 [6]: 3366 ng·h/g
AUC0-inf [6]: 3374 ng·h/g
AUC0-last [6]: 3004 ng·h/g
AUC0-24 [7]: 23128 ng·h/g
AUC0-inf [7]: 23415 ng·h/g
AUC0-last [7]: 23128 ng·h/g
AUC0-24 [8]: 45091 ng·h/g
AUC0-last [8]: 45091 ng·h/g
AUC0-24 [9]: 20288 ng·h/g
AUC0-inf [9]: 20534 ng·h/g
AUC0-last [9]: 20288 ng·h/g
Cmax [9]: 5400 ng/g
Tmax [9]: 0.5 h
half-life [9]: 3.87 h
AUC0-24 (male SD rat, PO 10 mg/kg, Lung): 5806 ng·h/g
AUC0-inf (male SD rat, PO 10 mg/kg, Lung): 5835 ng·h/g
AUC0-last (male SD rat, PO 10 mg/kg, Lung): 4926 ng·h/g
Cmax (male SD rat, PO 10 mg/kg, Lung): 1960 ng/g
Tmax (male SD rat, PO 10 mg/kg, Lung): 0.5 h
half-life (male SD rat, PO 10 mg/kg, Lung): 2.7 h
AUC0-24 (male SD rat, PO 10 mg/kg, Skin): 7864 ng·h/g
AUC0-inf (male SD rat, PO 10 mg/kg, Skin): 9352 ng·h/g
AUC0-last (male SD rat, PO 10 mg/kg, Skin): 7864 ng·h/g
Cmax (male SD rat, PO 10 mg/kg, Skin): 868 ng/g
Tmax (male SD rat, PO 10 mg/kg, Skin): 0.5 h
half-life (male SD rat, PO 10 mg/kg, Skin): 8.6 h
AUC0-24 [10]: 73082 ng·h/g
AUC0-inf [10]: 73697 ng·h/g
AUC0-last [10]: 73822 ng·h/g
Cmax [10]: 16500 ng/g
Tmax [10]: 0.5 h
half-life [10]: 3.41 h
AUC0-24 [11]: 13189 ng·h/g
AUC0-inf [11]: 13631 ng·h/g
AUC0-last [11]: 13189 ng·h/g
Cmax [11]: 4230 ng/g
Tmax [11]: 0.5 h
half-life [11]: 4.91 h
Kp (male, SD, bladder / plasma, po, male SD rat, PO 10 mg/kg, Bladder, Tissue AUC0-last/Plasma AUC0-last, read-out: AUC Ratio): 3.37
Kp (male, SD, bone marrow / plasma, po, male SD rat, PO 10 mg/kg, Bone Marrow, Tissue AUC0-last/Plasma AUC0-last, read-out: AUC Ratio): 3.97
Kp (male, SD, large intestine / plasma, po, male SD rat, PO 10 mg/kg, Large intestine, Tissue AUC0-last/Plasma AUC0-last, read-out: AUC Ratio): 16.7
Kp (male, SD, liver / plasma, po, male SD rat, PO 10 mg/kg, Liver, Tissue AUC0-last/Plasma AUC0-last, read-out: AUC Ratio): 7.5
Kp (male, SD, lung / plasma, po, male SD rat, PO 10 mg/kg, Lung, Tissue AUC0-last/Plasma AUC0-last, read-out: AUC Ratio): 1.82
Kp (male, SD, skin / plasma, po, male SD rat, PO 10 mg/kg, Skin, Tissue AUC0-last/Plasma AUC0-last, read-out: AUC Ratio): 2.91
Kp (male, SD, small intestine / plasma, po, male SD rat, PO 10 mg/kg, Small intestine, Tissue AUC0-last/Plasma AUC0-last, read-out: AUC Ratio): 27
Kp (male, SD, spleen / plasma, po, male SD rat, PO 10 mg/kg, Spleen, Tissue AUC0-last/Plasma AUC0-last, read-out: AUC Ratio): 4.88
Kp (male, Sprague-Dawley, epididymis and testis, po, male SD rat, PO 10 mg/kg, Epididymis & Testis, Tissue AUC0-last/Plasma AUC0-last, read-out: AUC Ratio): 1.91
Kp (male, Sprague-Dawley, eyeball (left and right), po, male SD rat, PO 10 mg/kg, Eyeball (left and right), Tissue AUC0-last/Plasma AUC0-last, read-out: AUC Ratio): 0.492
Kp (male, Sprague-Dawley, fat, po, male SD rat, PO 10 mg/kg, Fat, Tissue AUC0-last/Plasma AUC0-last, read-out: AUC Ratio): 0.513
Kp (male, Sprague-Dawley, heart, po, male SD rat, PO 10 mg/kg, Heart, Tissue AUC0-last/Plasma AUC0-last, read-out: AUC Ratio): 1.11
Kp (male, Sprague-Dawley, kidney (left and right), po, male SD rat, PO 10 mg/kg, Kidney (left and right), Tissue AUC0-last/Plasma AUC0-last, read-out: AUC Ratio): 8.35
AUC(0-t) (male, Sprague-Dawley, po, male SD rat, PO 10 mg/kg, read-out: AUC0-24): 2910 ng·h/mL
AUC(0-t) (male, Sprague-Dawley, po, male SD rat, PO 10 mg/kg, read-out: AUC0-last): 2700 ng·h/mL
Kp (male, Sprague-Dawley, testis, oral, SD rat, Testis, read-out: Tissue/Plasma Ratio (AUCinf)): 1.6
Cmax [12]: 976 ng/g
Tmax [12]: 0.5 h
half-life [12]: 2.68 h
